Measurements as given in EPA's ToxRefDB 2.

What was measured:
mouse [1] = conditions: Carcinogenicity, cd1, Oral, Feed, dose end: 80 week, group: systemic
dog [2] = conditions: Chronic toxicity, beagle, Oral, Capsule, dose end: 52 week, group: systemic
rabbit [3] = conditions: Prenatal developmental toxicity study, other, Oral, Gavage/Intubation, dose end: 19 GD
rabbit [4] = conditions: Prenatal developmental toxicity study, new zealand white, Oral, Gavage/Intubation, dose end: 18 GD
rat [5] = conditions: Prenatal developmental toxicity study, sprague dawley, Oral, Gavage/Intubation, dose end: 15 GD
rat [6] = conditions: Chronic toxicity; other; Oral; Feed; dose end: 24 month; group: systemic; systemic / organ weight / testes / nos + systemic / pathology gross / testes / reduced size + systemic / pathology microscopic / testes / …
rat [7] = conditions: Multigenerational reproductive toxicity study, sprague dawley, Oral, Feed, dose end: 2 generation
mouse [8] = conditions: Combined chronic toxicity/carcinogenicity; cd1; Oral; [Not Specified]; dose end: 18 month; group: systemic; systemic / pathology microscopic / lung / adenoma + systemic / pathology microscopic / lung / carcinoma
dog [9] = conditions: Chronic toxicity; beagle; Oral; Capsule; dose end: 26 week; group: systemic; systemic / in life observation / clinical signs / defecation (diarrhea) + systemic / in life observation / clinical signs / mucoid stools + …
rat [10] = conditions: Subchronic oral toxicity in rodents, sprague dawley, Feed, dose end: 91 day, group: systemic
dog [11] = conditions: Subchronic oral toxicity in nonrodent, beagle, Capsule, dose end: 91 day, group: systemic
[12] = systemic / in life observation / body weight / body weight gain
[13] = systemic / in life observation / body weight / body weight gain + systemic / in life observation / body weight / body weight + systemic / …
[14] = systemic / in life observation / body weight / body weight gain + systemic / in life observation / body weight / body weight + systemic / in…
[15] = group: developmental, developmental / developmental malformation / bone / [other]
[16] = group: maternal, reproductive / reproductive performance / resorptions / resorptions + systemic / in life observation / clinical signs / defecation (diarrhea…
[17] = group: developmental, systemic / in life observation / body weight / fetal weight
[18] = group: maternal, systemic / in life observation / clinical signs / anogenital staining + systemic / in life observation / clinical signs / defecation + …
[19] = group: developmental, developmental / developmental malformation / bone / incomplete ossification + developmental / developmental malformation / general / [other…
[20] = group: maternal, systemic / in life observation / body weight / body weight + systemic / in life observation / clinical signs / fat, discoloration + systemic…
[21] = group: parental, systemic / pathology gross / testes / degeneration + systemic / pathology microscopic / testes / aspermia + systemic / pathology microscopic…
[22] = group: reproductive, reproductive / reproductive performance / fertility / fertility + reproductive / reproductive performance / mating / mating
[23] = systemic / organ weight / testes / nos + systemic / in life observation / body weight / body weight + systemic / in life observation / food …
[24] = systemic / clinical chemistry / alanine aminotransferase (alt/sgpt) / alanine aminotransferase (alt/sgpt) + systemic / in life observation…
[25] = systemic / in life observation / body weight / body weight

COS(=O)(=O)[O-].Cn1c(-c2ccccc2)cc(-c2ccccc2)[n+]1C [Difenzoquat metilsulfate]
LEL (mouse [1]; [12]): 69.4 mg/kg/day
LOAEL (mouse [1]; [12]): 69.4 mg/kg/day
NEL (mouse [1]; [13]): 26.9 mg/kg/day
NOAEL (mouse [1]; [13]): 26.9 mg/kg/day
LOAEL (dog [2]; [12]): 30 mg/kg/day
LEL (dog [2]; [14]): 30 mg/kg/day
NEL (dog [2]; [14]): 20 mg/kg/day
NOAEL (dog [2]; [14]): 20 mg/kg/day
LEL (rabbit [3]; [15]): 250 mg/kg/day
LOAEL (rabbit [3]; [15]): 250 mg/kg/day
NEL (rabbit [3]; [15]): 100 mg/kg/day
NOAEL (rabbit [3]; [15]): 100 mg/kg/day
LEL (rabbit [3]; [16]): 250 mg/kg/day
LOAEL (rabbit [3]; [16]): 250 mg/kg/day
NEL (rabbit [3]; [16]): 100 mg/kg/day
NOAEL (rabbit [3]; [16]): 100 mg/kg/day

CC1(C)CN=C(NN=C(C=Cc2ccc(C(F)(F)F)cc2)C=Cc2ccc(C(F)(F)F)cc2)NC1 [Hydramethylnon]
LEL (rabbit [4]; [17]): 10 mg/kg/day
LOAEL (rabbit [4]; [17]): 10 mg/kg/day
NEL (rabbit [4]; [17]): 5 mg/kg/day
NOAEL (rabbit [4]; [17]): 5 mg/kg/day
LEL (rabbit [4]; [18]): 10 mg/kg/day
LOAEL (rabbit [4]; [18]): 10 mg/kg/day
NEL (rabbit [4]; [18]): 5 mg/kg/day
NOAEL (rabbit [4]; [18]): 5 mg/kg/day
LEL (rat [5]; [19]): 30 mg/kg/day
LOAEL (rat [5]; [19]): 30 mg/kg/day
NEL (rat [5]; [19]): 10 mg/kg/day
NOAEL (rat [5]; [19]): 10 mg/kg/day
LEL (rat [5]; group: maternal, systemic / in life observation / body weight / body weight + systemic / in life observation / clinical signs / fat, discoloration): 10 mg/kg/day
LOAEL (rat [5]; [20]): 30 mg/kg/day
NEL (rat [5]; [20]): 3 mg/kg/day
NOAEL (rat [5]; [20]): 10 mg/kg/day
LEL (rat [6]): 4.9 mg/kg/day
LOAEL (rat [6]): 4.9 mg/kg/day
NEL (rat [6]): 2.4 mg/kg/day
NOAEL (rat [6]): 2.4 mg/kg/day
LEL (rat [7]; [21]): 3.32 mg/kg/day
LOAEL (rat [7]; [21]): 3.32 mg/kg/day
NEL (rat [7]; [21]): 1.66 mg/kg/day
NOAEL (rat [7]; [21]): 1.66 mg/kg/day
LEL (rat [7]; [22]): 5.07 mg/kg/day
LOAEL (rat [7]; [22]): > 5.07 mg/kg/day
NEL (rat [7]; [22]): 3.32 mg/kg/day
NOAEL (rat [7]; [22]): ≥ 5.07 mg/kg/day
LEL (mouse [8]): 4.45 mg/kg/day
LOAEL (mouse [8]): 4.45 mg/kg/day
NEL (mouse [8]): < 4.45 mg/kg/day
NOAEL (mouse [8]): < 4.45 mg/kg/day
LEL (dog [9]): 3 mg/kg/day
LOAEL (dog [9]): 3 mg/kg/day
NEL (dog [9]): 1 mg/kg/day
NOAEL (dog [9]): 1 mg/kg/day
LEL (rat [10]; systemic / organ weight / testes / nos): 2.5 mg/kg/day
NEL (rat [10]; [23]): 1.25 mg/kg/day
NOAEL (rat [10]; [23]): 2.5 mg/kg/day
LOAEL (rat [10]; systemic / organ weight / testes / nos + systemic / pathology microscopic / testes / atrophy): 5 mg/kg/day
LOAEL (dog [11]; [24]): 6 mg/kg/day
NOAEL (dog [11]; [24]): 3 mg/kg/day
LEL (dog [11]; [25]): 3 mg/kg/day
NEL (dog [11]; [25]): < 3 mg/kg/day
